# System: chronic fatigue syndrome
# Experiment: Experiment 1: oral treatment of a subject diagnosed with chronic fatigue syndrome
# Format: in vivo, human
# Conditions: one subject, CFS by CDC criteria; 100 mg capsules orally twice daily for two months
# Experimental: One subject, recently diagnosed with chronic fatigue syndrome by CDC criteria, orally consumed 100 mg capsules of Δ5-androstene-3-acetyl-7,17-dione twice daily for two months. […] As testament to their improvement, they reported to their physician that they had just finished building a 20′×30′ addition to their bam, something, they said, they would not have and could not have done prior to taking Δ5-androstene-3-acetyl-7,17-dione.
structure (smiles),measurement,value
"CC(=O)O[C@H]1CC[C@@]2(C)C(=CC(=O)[C@@H]3[C@@H]2CC[C@]2(C)C(=O)CC[C@@H]32)C1 [Δ5-androstene-3-acetyl-7,17-dione]",improvement in their symptoms of fatigue (self-reported),80%
same,mental alertness (self-reported),felt more mentally alert

# From patent US7553829B2, “Treatment of chronic fatigue syndrome and fibromyalgia syndrome” (Humanetics Corporation, priority 2000, dated 2009)
